Reference: ChEMBL document CHEMBL3991601, “The target landscape of clinical kinase drugs” (Science, 2017)
Active and inactive are the calls of the source. For most assays here, no stated cut-off is given here; in the data, actives have a measured Kd and inactives only a lower limit.

What was measured:
[1] = molecular target: T1, General transcription and DNA repair factor IIH helicase subunit XPD (Homo sapiens, UniProt P18074); conditions: read-out: Kd apparent; k-562, colo 205, sk-n-be(2) and mv-4-11
T1 sequence (P18074 whole entry): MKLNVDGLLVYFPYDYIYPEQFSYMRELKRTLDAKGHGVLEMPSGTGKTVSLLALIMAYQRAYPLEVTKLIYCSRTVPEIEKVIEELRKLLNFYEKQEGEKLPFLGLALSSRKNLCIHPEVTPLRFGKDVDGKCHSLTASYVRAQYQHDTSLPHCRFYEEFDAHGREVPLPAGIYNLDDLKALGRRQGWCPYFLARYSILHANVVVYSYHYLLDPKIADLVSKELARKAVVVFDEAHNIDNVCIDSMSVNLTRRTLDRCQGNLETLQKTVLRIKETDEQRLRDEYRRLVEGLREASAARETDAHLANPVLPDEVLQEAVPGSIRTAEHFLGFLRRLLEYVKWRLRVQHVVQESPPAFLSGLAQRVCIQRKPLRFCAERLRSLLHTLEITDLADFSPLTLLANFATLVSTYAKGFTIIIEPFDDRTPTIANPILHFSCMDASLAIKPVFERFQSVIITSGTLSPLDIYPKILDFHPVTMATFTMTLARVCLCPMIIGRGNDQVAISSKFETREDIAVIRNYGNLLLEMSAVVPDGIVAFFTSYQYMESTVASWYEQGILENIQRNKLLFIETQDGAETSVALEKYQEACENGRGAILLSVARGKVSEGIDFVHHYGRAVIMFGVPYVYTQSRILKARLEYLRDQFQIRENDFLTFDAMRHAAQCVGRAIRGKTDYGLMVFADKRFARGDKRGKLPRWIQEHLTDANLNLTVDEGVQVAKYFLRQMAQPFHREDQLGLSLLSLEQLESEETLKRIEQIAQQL

[2] = molecular target: T2, EKC/KEOPS complex subunit TP53RK (Homo sapiens, UniProt Q96S44)
T2 sequence (Q96S44 whole entry): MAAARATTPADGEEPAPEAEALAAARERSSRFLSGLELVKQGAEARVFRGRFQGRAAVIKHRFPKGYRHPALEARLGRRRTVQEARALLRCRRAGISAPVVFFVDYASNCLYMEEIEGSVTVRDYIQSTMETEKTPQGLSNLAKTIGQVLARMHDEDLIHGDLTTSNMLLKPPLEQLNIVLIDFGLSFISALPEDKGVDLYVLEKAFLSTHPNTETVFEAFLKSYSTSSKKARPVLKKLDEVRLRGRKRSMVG

[3] = molecular target: Glycogen synthase kinase-3 alpha (Homo sapiens, UniProt P49840)
Chain of Glycogen synthase kinase-3 alpha (P49840 whole entry): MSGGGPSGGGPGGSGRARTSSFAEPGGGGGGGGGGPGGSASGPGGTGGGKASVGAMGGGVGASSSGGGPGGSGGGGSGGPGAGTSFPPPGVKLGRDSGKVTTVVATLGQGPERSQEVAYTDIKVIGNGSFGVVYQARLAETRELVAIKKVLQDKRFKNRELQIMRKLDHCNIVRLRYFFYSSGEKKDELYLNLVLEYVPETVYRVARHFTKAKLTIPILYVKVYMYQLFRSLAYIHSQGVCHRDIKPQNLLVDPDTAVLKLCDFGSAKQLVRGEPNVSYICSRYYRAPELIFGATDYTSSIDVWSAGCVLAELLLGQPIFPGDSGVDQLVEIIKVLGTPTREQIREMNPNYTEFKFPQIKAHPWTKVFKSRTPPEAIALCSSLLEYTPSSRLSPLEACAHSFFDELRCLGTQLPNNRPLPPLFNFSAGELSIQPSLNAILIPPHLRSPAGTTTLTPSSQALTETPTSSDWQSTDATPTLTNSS

[4] = molecular target: Serine/threonine-protein kinase MRCK beta (Homo sapiens, UniProt Q9Y5S2)
Chain of Serine/threonine-protein kinase MRCK beta (Q9Y5S2 whole entry): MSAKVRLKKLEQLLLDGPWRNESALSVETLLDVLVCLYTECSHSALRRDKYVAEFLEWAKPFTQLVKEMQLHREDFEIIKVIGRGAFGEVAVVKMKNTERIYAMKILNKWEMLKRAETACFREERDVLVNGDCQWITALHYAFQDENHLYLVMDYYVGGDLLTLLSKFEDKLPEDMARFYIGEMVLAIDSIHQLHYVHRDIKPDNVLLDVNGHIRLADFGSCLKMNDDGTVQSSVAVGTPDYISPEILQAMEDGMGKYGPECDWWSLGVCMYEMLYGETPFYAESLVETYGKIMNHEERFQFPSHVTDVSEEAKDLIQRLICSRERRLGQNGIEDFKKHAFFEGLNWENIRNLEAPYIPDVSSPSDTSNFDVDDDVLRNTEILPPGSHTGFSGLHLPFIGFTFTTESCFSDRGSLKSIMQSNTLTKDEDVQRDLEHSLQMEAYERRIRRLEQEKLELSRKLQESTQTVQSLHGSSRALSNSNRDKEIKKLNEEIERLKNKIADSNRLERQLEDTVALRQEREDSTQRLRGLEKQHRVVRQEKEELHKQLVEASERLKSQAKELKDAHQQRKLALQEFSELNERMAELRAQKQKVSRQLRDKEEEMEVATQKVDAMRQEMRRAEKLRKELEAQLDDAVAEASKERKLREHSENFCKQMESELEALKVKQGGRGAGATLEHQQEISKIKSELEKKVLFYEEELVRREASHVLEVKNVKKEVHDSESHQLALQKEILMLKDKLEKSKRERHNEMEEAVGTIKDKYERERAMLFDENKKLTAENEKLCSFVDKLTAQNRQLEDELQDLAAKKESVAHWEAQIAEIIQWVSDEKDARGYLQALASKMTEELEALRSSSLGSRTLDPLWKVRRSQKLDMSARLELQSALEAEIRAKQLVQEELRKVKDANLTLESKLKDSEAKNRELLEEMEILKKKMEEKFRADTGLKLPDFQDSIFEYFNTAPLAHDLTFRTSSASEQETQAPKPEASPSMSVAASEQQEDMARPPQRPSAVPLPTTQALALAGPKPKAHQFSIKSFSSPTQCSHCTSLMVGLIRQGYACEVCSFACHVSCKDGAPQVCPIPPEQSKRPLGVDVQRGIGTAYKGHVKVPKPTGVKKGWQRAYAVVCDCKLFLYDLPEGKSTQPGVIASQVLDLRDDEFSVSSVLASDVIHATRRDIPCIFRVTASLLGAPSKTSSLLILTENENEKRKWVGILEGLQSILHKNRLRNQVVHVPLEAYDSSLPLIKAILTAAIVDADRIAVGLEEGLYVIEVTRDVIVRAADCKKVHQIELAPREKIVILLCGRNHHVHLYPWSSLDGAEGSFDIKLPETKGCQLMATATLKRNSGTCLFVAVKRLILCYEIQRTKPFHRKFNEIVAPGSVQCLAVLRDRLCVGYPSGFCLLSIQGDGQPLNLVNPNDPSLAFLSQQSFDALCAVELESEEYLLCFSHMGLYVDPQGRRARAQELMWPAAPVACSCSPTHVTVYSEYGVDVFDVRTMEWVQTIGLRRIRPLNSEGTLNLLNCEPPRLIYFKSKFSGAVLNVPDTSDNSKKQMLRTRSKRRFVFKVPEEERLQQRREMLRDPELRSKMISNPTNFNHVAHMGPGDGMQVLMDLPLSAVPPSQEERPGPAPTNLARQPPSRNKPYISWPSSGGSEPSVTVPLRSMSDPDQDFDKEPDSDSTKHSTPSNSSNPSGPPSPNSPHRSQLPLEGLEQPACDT

[5] = molecular target: Platelet-derived growth factor receptor beta (Homo sapiens, UniProt P09619)
Chain of Platelet-derived growth factor receptor beta (P09619 whole entry): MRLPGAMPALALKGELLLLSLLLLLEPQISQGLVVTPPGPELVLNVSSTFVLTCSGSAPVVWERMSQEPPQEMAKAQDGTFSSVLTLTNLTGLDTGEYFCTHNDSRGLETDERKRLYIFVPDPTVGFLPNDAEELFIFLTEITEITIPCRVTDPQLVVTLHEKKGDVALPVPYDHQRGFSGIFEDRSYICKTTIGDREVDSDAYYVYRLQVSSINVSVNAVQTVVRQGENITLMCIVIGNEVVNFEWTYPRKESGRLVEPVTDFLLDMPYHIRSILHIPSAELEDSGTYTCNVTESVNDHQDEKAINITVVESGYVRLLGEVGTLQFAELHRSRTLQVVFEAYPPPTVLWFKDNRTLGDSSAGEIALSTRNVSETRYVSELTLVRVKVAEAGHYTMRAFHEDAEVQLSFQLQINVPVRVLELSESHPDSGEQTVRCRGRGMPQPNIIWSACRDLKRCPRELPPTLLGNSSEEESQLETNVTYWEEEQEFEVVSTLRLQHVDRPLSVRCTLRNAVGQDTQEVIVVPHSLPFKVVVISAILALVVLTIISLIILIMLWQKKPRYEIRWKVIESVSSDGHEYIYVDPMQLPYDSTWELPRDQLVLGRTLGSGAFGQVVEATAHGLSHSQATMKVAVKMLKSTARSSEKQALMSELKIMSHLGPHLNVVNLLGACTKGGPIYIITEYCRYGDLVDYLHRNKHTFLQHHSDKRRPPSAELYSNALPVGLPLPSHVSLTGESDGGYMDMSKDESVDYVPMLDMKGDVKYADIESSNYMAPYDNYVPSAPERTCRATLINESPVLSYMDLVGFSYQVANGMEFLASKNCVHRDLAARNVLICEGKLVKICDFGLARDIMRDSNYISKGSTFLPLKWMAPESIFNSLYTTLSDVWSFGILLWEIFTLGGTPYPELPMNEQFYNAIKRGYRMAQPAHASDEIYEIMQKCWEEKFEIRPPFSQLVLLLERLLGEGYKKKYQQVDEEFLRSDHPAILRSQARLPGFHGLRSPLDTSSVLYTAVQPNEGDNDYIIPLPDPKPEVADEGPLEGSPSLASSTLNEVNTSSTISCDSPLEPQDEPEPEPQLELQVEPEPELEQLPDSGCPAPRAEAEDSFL

Pyridoxal kinase = molecular target: T3, Pyridoxal kinase (Homo sapiens, UniProt O00764)
T3 sequence (O00764 whole entry): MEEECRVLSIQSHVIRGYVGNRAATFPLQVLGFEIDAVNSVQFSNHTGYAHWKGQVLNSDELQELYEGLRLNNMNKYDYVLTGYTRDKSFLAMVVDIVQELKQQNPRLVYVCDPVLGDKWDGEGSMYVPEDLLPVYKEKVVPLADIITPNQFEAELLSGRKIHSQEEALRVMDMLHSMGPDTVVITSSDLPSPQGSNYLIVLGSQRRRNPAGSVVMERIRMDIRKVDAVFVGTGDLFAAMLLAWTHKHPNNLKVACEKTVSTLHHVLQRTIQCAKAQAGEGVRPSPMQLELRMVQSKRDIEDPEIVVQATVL

[6] = molecular target: Macrophage-stimulating protein receptor (Homo sapiens, UniProt Q04912)
Chain of Macrophage-stimulating protein receptor (Q04912 25-304 limits assumed): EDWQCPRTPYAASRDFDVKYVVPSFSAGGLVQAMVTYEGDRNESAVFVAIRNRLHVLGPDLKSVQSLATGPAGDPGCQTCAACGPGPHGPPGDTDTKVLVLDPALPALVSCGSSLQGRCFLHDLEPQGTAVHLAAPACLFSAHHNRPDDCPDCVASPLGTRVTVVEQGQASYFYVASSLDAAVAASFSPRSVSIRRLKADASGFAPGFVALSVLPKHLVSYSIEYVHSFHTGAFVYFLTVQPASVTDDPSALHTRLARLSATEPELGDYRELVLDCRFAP
Chain of Macrophage-stimulating protein receptor (Q04912 310-1400 limits assumed): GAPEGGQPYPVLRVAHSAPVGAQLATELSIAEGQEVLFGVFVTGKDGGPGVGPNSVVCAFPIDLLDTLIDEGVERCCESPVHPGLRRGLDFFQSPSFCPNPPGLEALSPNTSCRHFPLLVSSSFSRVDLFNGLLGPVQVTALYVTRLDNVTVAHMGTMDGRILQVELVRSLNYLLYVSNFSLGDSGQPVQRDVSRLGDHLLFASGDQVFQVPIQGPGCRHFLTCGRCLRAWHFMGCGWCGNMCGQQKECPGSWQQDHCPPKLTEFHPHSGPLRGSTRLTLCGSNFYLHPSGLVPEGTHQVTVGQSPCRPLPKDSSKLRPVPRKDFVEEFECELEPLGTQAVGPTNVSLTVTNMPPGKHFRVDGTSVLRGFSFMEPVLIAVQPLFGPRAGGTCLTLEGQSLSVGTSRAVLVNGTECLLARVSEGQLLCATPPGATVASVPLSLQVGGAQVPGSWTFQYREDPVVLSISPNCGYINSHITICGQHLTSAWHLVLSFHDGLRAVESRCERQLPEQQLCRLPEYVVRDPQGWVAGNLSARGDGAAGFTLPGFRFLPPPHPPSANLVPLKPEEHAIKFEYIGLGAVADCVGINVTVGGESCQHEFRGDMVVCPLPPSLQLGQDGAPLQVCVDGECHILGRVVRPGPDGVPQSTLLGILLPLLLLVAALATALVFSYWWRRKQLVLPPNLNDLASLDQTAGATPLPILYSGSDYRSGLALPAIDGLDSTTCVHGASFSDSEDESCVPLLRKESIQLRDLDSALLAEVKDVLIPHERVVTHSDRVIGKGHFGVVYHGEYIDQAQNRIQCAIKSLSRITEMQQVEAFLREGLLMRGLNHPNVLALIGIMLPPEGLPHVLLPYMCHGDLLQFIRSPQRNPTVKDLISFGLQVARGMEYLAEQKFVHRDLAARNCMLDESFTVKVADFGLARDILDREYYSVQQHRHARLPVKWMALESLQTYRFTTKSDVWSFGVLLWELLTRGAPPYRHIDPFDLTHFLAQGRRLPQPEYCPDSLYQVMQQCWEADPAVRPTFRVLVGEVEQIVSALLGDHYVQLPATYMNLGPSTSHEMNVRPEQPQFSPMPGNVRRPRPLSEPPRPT

[7] = molecular target: Casein kinase I isoform gamma-1 (Homo sapiens, UniProt Q9HCP0)
Chain of Casein kinase I isoform gamma-1 (Q9HCP0 whole entry, the tested form may be a part, canonical isoform): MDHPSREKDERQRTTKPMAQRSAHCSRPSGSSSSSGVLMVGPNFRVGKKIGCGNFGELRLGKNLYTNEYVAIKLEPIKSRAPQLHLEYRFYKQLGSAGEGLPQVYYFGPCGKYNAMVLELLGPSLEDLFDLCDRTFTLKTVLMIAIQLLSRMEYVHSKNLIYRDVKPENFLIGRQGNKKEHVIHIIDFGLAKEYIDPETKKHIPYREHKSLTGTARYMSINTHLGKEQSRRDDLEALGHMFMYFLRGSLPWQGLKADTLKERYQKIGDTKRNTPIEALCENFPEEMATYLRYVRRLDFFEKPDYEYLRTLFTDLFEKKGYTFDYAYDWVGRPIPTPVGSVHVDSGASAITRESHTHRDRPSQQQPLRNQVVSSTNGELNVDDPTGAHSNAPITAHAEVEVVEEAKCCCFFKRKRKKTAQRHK

LIM domain kinase 1 = LIM domain kinase 1 (Homo sapiens, UniProt P53667)
TGF-beta receptor type-1 = molecular target: T4, TGF-beta receptor type-1 (Homo sapiens, UniProt P36897)
T4 sequence (P36897 whole entry): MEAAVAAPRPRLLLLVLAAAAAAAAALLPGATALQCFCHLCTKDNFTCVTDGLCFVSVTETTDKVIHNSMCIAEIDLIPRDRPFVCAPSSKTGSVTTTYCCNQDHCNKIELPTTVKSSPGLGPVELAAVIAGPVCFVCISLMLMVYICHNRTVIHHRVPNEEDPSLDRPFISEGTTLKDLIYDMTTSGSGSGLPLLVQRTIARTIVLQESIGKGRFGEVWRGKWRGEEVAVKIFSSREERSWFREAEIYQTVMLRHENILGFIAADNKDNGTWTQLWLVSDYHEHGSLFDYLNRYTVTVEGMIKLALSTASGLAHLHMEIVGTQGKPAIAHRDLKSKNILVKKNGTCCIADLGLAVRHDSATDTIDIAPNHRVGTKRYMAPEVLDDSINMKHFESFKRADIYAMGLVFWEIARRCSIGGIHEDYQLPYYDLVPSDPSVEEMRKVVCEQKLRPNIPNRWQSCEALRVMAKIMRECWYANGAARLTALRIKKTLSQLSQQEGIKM

[8] = molecular target: T5, Serine/threonine-protein kinase 3 (Homo sapiens, UniProt Q13188)
T5 sequence (Q13188 whole entry): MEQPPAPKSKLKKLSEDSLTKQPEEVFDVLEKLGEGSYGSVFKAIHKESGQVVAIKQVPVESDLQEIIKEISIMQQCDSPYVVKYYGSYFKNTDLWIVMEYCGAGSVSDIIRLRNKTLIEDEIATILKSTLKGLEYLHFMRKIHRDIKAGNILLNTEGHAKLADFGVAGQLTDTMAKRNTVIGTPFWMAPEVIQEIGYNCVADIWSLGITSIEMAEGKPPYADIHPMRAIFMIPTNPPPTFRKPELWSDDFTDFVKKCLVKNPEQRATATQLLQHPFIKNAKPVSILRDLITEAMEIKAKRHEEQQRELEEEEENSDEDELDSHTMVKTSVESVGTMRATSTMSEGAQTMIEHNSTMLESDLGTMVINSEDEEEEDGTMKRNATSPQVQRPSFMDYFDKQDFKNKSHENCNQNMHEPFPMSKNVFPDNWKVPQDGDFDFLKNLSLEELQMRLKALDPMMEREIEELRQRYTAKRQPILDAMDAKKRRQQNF

| Kd [1] | Kd [2] | Kd [3] | Kd [4] | Kd [5] | Kd (Pyridoxal kinase) | Kd [6] | Kd [7] | Kd (LIM domain kinase 1) | Kd (TGF-beta receptor type-1) | Kd [8] | Compound |
| --- | --- | --- | --- | --- | --- | --- | --- | --- | --- | --- | --- |
| > 30 µM (inactive) | > 30 µM (inactive) | > 30 µM (inactive) | > 30 µM (inactive) | > 30 µM (inactive) | > 30 µM (inactive) | > 30 µM (inactive) | > 30 µM (inactive) | 3.98 µM (active) | > 30 µM (inactive) | > 30 µM (inactive) | COc1cc(N2CCC(N3CCN(C)CC3)CC2)ccc1Nc1ncnc(Nc2ccccc2S(=O)(=O)C(C)C)n1 [ASP-3026] |
| > 30 µM (inactive) | > 30 µM (inactive) | > 30 µM (inactive) | > 30 µM (inactive) | > 30 µM (inactive) | > 30 µM (inactive) | > 30 µM (inactive) | > 30 µM (inactive) | > 30 µM (inactive) | > 30 µM (inactive) | > 30 µM (inactive) | CNC(=O)c1ccc(C)c(-n2c(C)cc(OCc3ccc(F)cc3F)c(Br)c2=O)c1 [PH-797804] |
| > 30 µM (inactive) | > 30 µM (inactive) | > 30 µM (inactive) | > 30 µM (inactive) | > 30 µM (inactive) | > 30 µM (inactive) | > 30 µM (inactive) | > 30 µM (inactive) | > 30 µM (inactive) | > 30 µM (inactive) | > 30 µM (inactive) | Cn1cc(-c2ccc(F)c(C(F)(F)F)c2)nc1C1CCN(c2ncnc3[nH]ncc23)CC1 [LY-2584702] |
| > 30 µM (inactive) | 0.058 µM (active) | > 30 µM (inactive) | > 30 µM (inactive) | > 30 µM (inactive) | > 30 µM (inactive) | > 30 µM (inactive) | 17.5 µM (active) | > 30 µM (inactive) | > 30 µM (inactive) | > 30 µM (inactive) | O=C1NC(=O)/C(=C/c2ccc3nccc(-c4ccncc4)c3c2)S1 [GSK-1059615] |

More lines, now with the values behind:

| Compound | Kd [1] | Kd [2] | Kd [3] | Kd [4] | Kd [5] | Kd (Pyridoxal kinase) | Kd [6] | Kd [7] | Kd (LIM domain kinase 1) | Kd (TGF-beta receptor type-1) | Kd [8] |
| --- | --- | --- | --- | --- | --- | --- | --- | --- | --- | --- | --- |
| CNC(=O)c1ccc(-c2cnc3ncc(Cc4ccc5ncccc5c4)n3n2)cc1F [CAPMATINIB] | > 30 µM (inactive) | > 30 µM (inactive) | > 30 µM (inactive) | > 30 µM (inactive) | > 30 µM (inactive) | > 30 µM (inactive) | > 30 µM (inactive) | > 30 µM (inactive) | > 30 µM (inactive) | > 30 µM (inactive) | > 30 µM (inactive) |
| CNC(=O)CN1CCC(Oc2cc3c(Nc4cccc(Cl)c4F)ncnc3cc2OC)CC1 [SAPITINIB] | > 30 µM (inactive) | > 30 µM (inactive) | > 30 µM (inactive) | > 30 µM (inactive) | > 30 µM (inactive) | > 30 µM (inactive) | > 30 µM (inactive) | > 30 µM (inactive) | > 30 µM (inactive) | > 30 µM (inactive) | > 30 µM (inactive) |
| Cc1ccc(S(=O)(=O)Nc2nc3ccccc3nc2Nc2ccc3nsnc3c2)cc1 | > 30 µM (inactive) | > 30 µM (inactive) | > 30 µM (inactive) | > 30 µM (inactive) | > 30 µM (inactive) | > 30 µM (inactive) | > 30 µM (inactive) | > 30 µM (inactive) | > 30 µM (inactive) | > 30 µM (inactive) | > 30 µM (inactive) |
| COc1cc2nccc(Oc3ccc(NC(=O)NC4CC4)c(Cl)c3)c2cc1C(N)=O [LENVATINIB] | > 30 µM (inactive) | > 30 µM (inactive) | > 30 µM (inactive) | > 30 µM (inactive) | 0.316 µM (active) | > 30 µM (inactive) | > 30 µM (inactive) | > 30 µM (inactive) | > 30 µM (inactive) | > 30 µM (inactive) | > 30 µM (inactive) |
| N[C@@H]1CCCN(c2c(/C=C3\SC(=O)NC3=O)cccc2-c2ccccc2)C1 | > 30 µM (inactive) | > 30 µM (inactive) | > 30 µM (inactive) | > 30 µM (inactive) | > 30 µM (inactive) | > 30 µM (inactive) | > 30 µM (inactive) | > 30 µM (inactive) | > 30 µM (inactive) | > 30 µM (inactive) | > 30 µM (inactive) |
| CN1CCC(COc2cnc(-c3cccc(Cn4nc(-c5cccc(C#N)c5)ccc4=O)c3)nc2)CC1 [TEPOTINIB] | > 30 µM (inactive) | > 30 µM (inactive) | > 30 µM (inactive) | > 30 µM (inactive) | > 30 µM (inactive) | > 30 µM (inactive) | > 30 µM (inactive) | > 30 µM (inactive) | > 30 µM (inactive) | > 30 µM (inactive) | > 30 µM (inactive) |
| O=C(c1ccc(F)c(F)c1Nc1ccc(I)cc1F)N1CC(O)([C@@H]2CCCCN2)C1 [COBIMETINIB] | > 30 µM (inactive) | > 30 µM (inactive) | > 30 µM (inactive) | > 30 µM (inactive) | > 30 µM (inactive) | > 30 µM (inactive) | > 30 µM (inactive) | > 30 µM (inactive) | > 30 µM (inactive) | > 30 µM (inactive) | > 30 µM (inactive) |
| COc1cc2nccc(Oc3ccc(NC(=O)Nc4cc(C)on4)c(Cl)c3)c2cc1OC [TIVOZANIB] | > 30 µM (inactive) | > 30 µM (inactive) | > 30 µM (inactive) | > 30 µM (inactive) | 2.41 µM (active) | > 30 µM (inactive) | > 30 µM (inactive) | > 30 µM (inactive) | > 30 µM (inactive) | > 30 µM (inactive) | > 30 µM (inactive) |
| Cc1ccc(NC(=O)c2ccc(CN3CC[C@H](N(C)C)C3)c(C(F)(F)F)c2)cc1Nc1nccc(-c2cncnc2)n1 [BAFETINIB] | > 30 µM (inactive) | > 30 µM (inactive) | > 30 µM (inactive) | > 30 µM (inactive) | 3.13 µM (active) | > 30 µM (inactive) | > 30 µM (inactive) | > 30 µM (inactive) | > 30 µM (inactive) | > 30 µM (inactive) | > 30 µM (inactive) |
